We go through one molecule from paper doi:10.1101/283176v2 (biorxiv, 2018).

The assay deals with LeuT (Aquifex aeolicus, UniProt O67854). As to the kind of experiment: scintillation proximity assay, displacement of [3H]leucine by alanine. Conditions: Na+ at its K0.5 (11.2 mM), pH 7.4 binding buffer, DDM. For orientation: SPA uses beads or plates that emit light when radiolabelled molecules are held near them.

The molecule `C[C@H](N)C(=O)O` [alanine] returned a KI-ala of 2.56 ± 0.51 µM.
